Source: publication PMC12246613, “Molecular basis of acyl-CoA ester recognition by α-methylacyl-CoA racemase from Mycobacterium tuberculosis” (The Journal of Biological Chemistry, 2025)
Values joined by “and” are separate entries in the source; they are usually repeats but may differ in a detail not shown here. Equal entries are not always repeated.

How the values were obtained:
[1] = target: T1, MCR (α-methylacyl-CoA racemase from Mycobacterium tuberculosis) (Mycobacterium tuberculosis, UniProt O06543); test: Colorimetric inhibition assay, dose-response curves; conditions: for Max % (coefficient): fitted maximum % activity; for Min % (coefficient): fitted minimum % activity; for Hillslope (coefficient): 4-parameter logistic fit; for pIC50 lower than expected based on LogP: from plot of pIC50 vs. calculated LogP
T1 sequence (O06543 whole entry): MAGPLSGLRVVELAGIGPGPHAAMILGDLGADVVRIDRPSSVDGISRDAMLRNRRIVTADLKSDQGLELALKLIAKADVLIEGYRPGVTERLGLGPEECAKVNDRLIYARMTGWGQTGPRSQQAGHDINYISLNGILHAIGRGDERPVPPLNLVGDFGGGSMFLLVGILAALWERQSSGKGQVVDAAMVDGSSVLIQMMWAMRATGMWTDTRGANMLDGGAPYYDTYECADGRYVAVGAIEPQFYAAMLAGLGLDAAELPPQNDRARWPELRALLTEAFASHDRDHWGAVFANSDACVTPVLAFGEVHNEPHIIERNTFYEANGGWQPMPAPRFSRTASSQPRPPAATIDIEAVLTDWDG

[2] = target: T1, MCR (α-methylacyl-CoA racemase from Mycobacterium tuberculosis); test: Deuterium-exchange assay (substrate α-proton exchange, 1H NMR); assay type: biochemical; parameters: made in house; conditions: 100 μM acyl-CoA, 2.34 nM MCR, ca. 85% 2H2O, 30 °C
Method: Exchange of substrate α-protons was assessed using the deuterium-exchange assay as previously described ([19], [32]). Assay mixtures contained 55 ng (2.34 nM) of active or heat-inactivated MCR, 100 μM acyl-CoA, 50 mM NaH2PO4-NaOH, pH 7.4 and ca. 85% (v/v) ^2H2O in a total volume of 600 μl. Fenoprofenoyl-CoA 2 was used as a positive control. Reactions were initiated by the addition of enzyme, and reaction mixtures were incubated at 30 °C for 1 h before quenching at 55 °C for 10 min. NMR data were collected on a Bruker Avance Neo operating at 500.13 MHz for proton at 25 °C. Solvent suppression was achieved using a pre-saturation experiment. Typically, 128 transients were recorded. Data were processed using Topspin 4.0.7. Analysis of deuterium-exchange is based upon changes in intensity of either the substrate methine protons in the α-position or by the effects of the loss of those α-proton on a coupled methyl group.

human AMACR 1A = conditions: cited from earlier work
[3] = target: T1, MCR (α-methylacyl-CoA racemase from Mycobacterium tuberculosis); test: Kinetic assay (Ki and mode of inhibition, colorimetric assay); assay type: biochemical; parameters: made in house
Method: Data was collected as previously described using ibuprofenoyl-CoA 1 at 0, 3.2, 10, and 32 μM, 3.12 nM MCR, and 50.2 to 576 μM substrate (final concentrations) in 50 mM NaH2PO4-NaOH, 100 mM NaCl, and 1 mM EDTA, pH 7.4 and 3% (v/v) DMSO. Enzyme and inhibitor stock solutions were pre-incubated together for 10 min before initiating the assay. Rates were determined using ICEKAT ([46], [47]), with logarithmic fit of the data and correction of rates for delays between reaction initiation and first read. Data was analyzed using SigmaPlot 15.0 using Simple EK and the enzyme kinetics macro, with the correct inhibition model selected using graphs (Fig. S19, A–G) and statistical ranking of models. The determined Ki value is the mean ± SEM for three independent repeats.

[4] = target: T1, MCR (α-methylacyl-CoA racemase from Mycobacterium tuberculosis); test: Jump-dilution experiment (reversibility of inhibition); assay type: biochemical; parameters: made in house; conditions: 12-min time-course, inhibitor at 6x or 0.06x the IC50
MCR = system: MCR; parameters: method as in PMID 26759836; conditions: cited from earlier work
[5] = pIC50, mean ± SEM, n = 3, colorimetric assay, 96 μM substrate, 3.12 nM MCR, 10 min pre-incubation
[6] = LogIC50 (coefficient), individual independent repeats 1-3, 4-parameter logistic fit of mean % activity (2 technical repeats)
[7] = individual independent repeats 1-3

Compound | IC50 [1, 5] [µM] | IC50 [1, 6] | Max % (coefficient) [1, 7] | Min % (coefficient) [1, 7] | Hillslope (coefficient) [1, 7] | also measured
CCCCCC(=O)SCCNC(=O)CCNC(=O)C(O)C(C)(C)COP(=O)(O)OP(=O)(O)OCC1OC(n2cnc3c(N)ncnc32)C(O)C1OP(=O)(O)O (centres unmarked) [compound 9, Hexanoyl-CoA] | ~316 |  |  |  |  | 
CC(C)C(=O)SCCNC(=O)CCNC(=O)C(O)C(C)(C)COP(=O)(O)OP(=O)(O)OCC1OC(n2cnc3c(N)ncnc32)C(O)C1OP(=O)(O)O (centres unmarked) [compound 12, Isobutanoyl-CoA] | ~1000 |  |  |  |  | α-proton exchange [2]: significant α-proton exchange
CC(C)Cc1ccc(C(C)C(=O)SCCNC(=O)CCNC(=O)C(O)C(C)(C)COP(=O)(O)OP(=O)(O)OCC2OC(n3cnc4c(N)ncnc43)C(O)C2OP(=O)(O)O)cc1 (racemic) [compound 1, ±-Ibuprofenoyl-CoA] | 8.91 | 10.9 µM and 8.94 µM and 7.48 µM | 105.5482% and 98.8641% and 101.2444% | 2.6168% and 2.9187% and 2.6510% | -0.9604 and -0.9180 and -0.9734 | Ki (human AMACR 1A; human AMACR 1A, mean ± SEM, n = 1): 0.06 ± 0.00478 µM; Ki ([3]; individual repeats 1-3, inhibitor 0, 3.2, 10, 32 μM, 50.2 to 576 μM substrate): 3.06 µM and 2.44 µM and 3.62 µM; Ki ([3]; mean ± SEM, n = 3, competitive inhibition model): 3.04 ± 0.34 µM; mode of inhibition ([3]; Lineweaver-Burk plot and statistical ranking of models): competitive inhibition; reversibility of inhibition [4]: reversible inhibition; potency on MCR relative to human AMACR (fold less potent) ([1]; MCR versus human AMACR): ~20 fold
CC(C(=O)SCCNC(=O)CCNC(=O)C(O)C(C)(C)COP(=O)(O)OP(=O)(O)OCC1OC(n2cnc3c(N)ncnc32)C(O)C1OP(=O)(O)O)c1cccc(C(=O)c2ccccc2)c1 (centres unmarked) [compound 3, S-Ketoprofenoyl-CoA] | 31.6 | 31.5 µM and 30.8 µM | 100.4116% and 96.3493% and 103.0106% | -9.0253% and -2.7332% and -8.7722% | -0.6349 and -0.7776 and -0.7146 | pIC50 lower than expected based on LogP [1]: approximately 0.3
COc1ccc2cc(C(C)C(=O)SCCNC(=O)CCNC(=O)C(O)C(C)(C)COP(=O)(O)OP(=O)(O)OCC3OC(n4cnc5c(N)ncnc54)C(O)C3OP(=O)(O)O)ccc2c1 (centres unmarked) [compound 5, S-Naproxenoyl-CoA] | 17 | 19.5 µM and 15.6 µM and 15.5 µM | 99.5824% and 102.2413% and 102.0390% | -0.6400% and -0.5309% and -2.7274% | -0.7858 and -0.8072 and -0.6833 | pIC50 lower than expected based on LogP [1]: approximately 0.3
CC(C(=O)SCCNC(=O)CCNC(=O)C(O)C(C)(C)COP(=O)(O)OP(=O)(O)OCC1OC(n2cnc3c(N)ncnc32)C(O)C1OP(=O)(O)O)c1cccc(Oc2ccccc2)c1 (racemic) [compound 2, ±-Fenoprofenoyl-CoA] | 15.1 | 20.4 µM and 11.7 µM and 14.2 µM | 99.3868% and 110.2399% and 93.4385% | -1.0173% and 2.2137% and -0.7388% | -0.8331 and -0.7292 and -0.8187 | relative inhibitor potency (human AMACR 1A; human AMACR): most potent inhibitor
CC(C(=O)SCCNC(=O)CCNC(=O)C(O)C(C)(C)COP(=O)(O)OP(=O)(O)OCC1OC(n2cnc3c(N)ncnc32)C(O)C1OP(=O)(O)O)c1ccc(-c2ccccc2)c(F)c1 (racemic) [compound 4, ±-Flurbiprofenoyl-CoA] | 18.2 | 13.1 µM and 21.1 µM and 21.2 µM | 97.7981% and 95.9188% and 94.6575% | 1.7221% and 0.8368% and 2.1053% | -0.9708 and -1.0277 and -1.0055 | 
CCCC(=O)SCCNC(=O)CCNC(=O)C(O)C(C)(C)COP(=O)(O)OP(=O)(O)OCC1OC(n2cnc3c(N)ncnc32)C(O)C1OP(=O)(O)O (centres unmarked) [compound 10, n-Butanoyl-CoA] | ~562 |  |  |  |  | 
CC(=O)SCCNC(=O)CCNC(=O)C(O)C(C)(C)COP(=O)(O)OP(=O)(O)OCC1OC(n2cnc3c(N)ncnc32)C(O)C1OP(=O)(O)O (centres unmarked) [compound 11, Acetyl-CoA] | ~1000 |  |  |  |  | 
CCCCCCCCC(C)C(=O)SCCNC(=O)CCNC(=O)[C@H](O)C(C)(C)COP(=O)(O)OP(=O)(O)OC[C@H]1O[C@@H](n2cnc3c(N)ncnc32)[C@H](O)[C@@H]1OP(=O)(O)O (some centres unmarked) [compound 6, S-2-Methyldecanoyl-CoA] | 58.9 | 62.8 µM and 67.4 µM and 46.5 µM | 104.1285% and 101.8704% and 101.0137% | 10.2466% and 13.4630% and 9.4607% | -1.5837 and -2.4923 and -1.4587 | 
CCCCCCCC(=O)SCCNC(=O)CCNC(=O)C(O)C(C)(C)COP(=O)(O)OP(=O)(O)OCC1OC(n2cnc3c(N)ncnc32)C(O)C1OP(=O)(O)O (centres unmarked) [compound 8, Octanoyl-CoA] | ~100 |  |  |  |  | 
CC(C)(COP(=O)(O)OP(=O)(O)OC[C@H]1O[C@@H](n2cnc3c(N)ncnc32)[C@H](O)[C@@H]1OP(=O)(O)O)[C@@H](O)C(=O)NCCC(=O)NCCSC(=O)C(c1ccccc1)c1ccccc1 [diphenylacetyl-CoA] |  |  |  |  |  | α-proton exchange (MCR): did not undergo α-proton exchange
CCCCCCCCCC(=O)SCCNC(=O)CCNC(=O)C(O)C(C)(C)COP(=O)(O)OP(=O)(O)OCC1OC(n2cnc3c(N)ncnc32)C(O)C1OP(=O)(O)O (centres unmarked) [compound 7, Decanoyl-CoA] | ~100 |  |  |  |  | 
